One data set deals with Kv11.1 (hERG) (Homo sapiens (Human), UniProt Q12809). Nature of the data set: Kv11.1 (hERG) ion channel activity (patch clamp assay), HEK293 cells transfected with hERG gene.
For another data set, the target named is DNA-PK (Homo sapiens (Human), UniProt P78527). Nature of the data set: DNA-PK assay (biochemical), flashplate 33P-ATP kinase assay. The essentials:
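Radiometric kinase reaction in streptavidin-coated flashplates, stopped with 200 mM EDTA, then 30 min room-temperature incubation and saline washes.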

Data set [1] concerns the target DNA-PK phosphorylation at serine 2056 (Homo sapiens (Human), UniProt P78527). Nature of the data set: DNA-PK phosphorylation at serine 2056 (cellular), bleomycin-treated HCT116 cells, ELISA. Format: cell-based. The conditions noted are these: HCT116 cells, read-out: IC50 pDNA-PK. The procedure, abridged:
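Test compounds and bleomycin (10 μM) are added to adherent HCT116 cells for 6 h. Detection uses an HRP-based chemiluminescent ELISA, with phospho-DNA-PK signals standardised to total protein.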
For orientation: An ELISA detects its analyte on a solid surface through an enzyme-linked reagent.

[2] abbreviates: read-out: Ki [Kv1.11 hERG], Table 5.
[3] abbreviates: cellular, 10 μM bleomycin, six hours.

Where two headings read alike, the source gives them in different places.

Results on 20 compounds are retold here after US9732094B2, “Arylquinazolines” (Merck Patent GmbH, priority 2013, dated 2017).

Chain of Kv11.1 (hERG) (Q12809 whole entry): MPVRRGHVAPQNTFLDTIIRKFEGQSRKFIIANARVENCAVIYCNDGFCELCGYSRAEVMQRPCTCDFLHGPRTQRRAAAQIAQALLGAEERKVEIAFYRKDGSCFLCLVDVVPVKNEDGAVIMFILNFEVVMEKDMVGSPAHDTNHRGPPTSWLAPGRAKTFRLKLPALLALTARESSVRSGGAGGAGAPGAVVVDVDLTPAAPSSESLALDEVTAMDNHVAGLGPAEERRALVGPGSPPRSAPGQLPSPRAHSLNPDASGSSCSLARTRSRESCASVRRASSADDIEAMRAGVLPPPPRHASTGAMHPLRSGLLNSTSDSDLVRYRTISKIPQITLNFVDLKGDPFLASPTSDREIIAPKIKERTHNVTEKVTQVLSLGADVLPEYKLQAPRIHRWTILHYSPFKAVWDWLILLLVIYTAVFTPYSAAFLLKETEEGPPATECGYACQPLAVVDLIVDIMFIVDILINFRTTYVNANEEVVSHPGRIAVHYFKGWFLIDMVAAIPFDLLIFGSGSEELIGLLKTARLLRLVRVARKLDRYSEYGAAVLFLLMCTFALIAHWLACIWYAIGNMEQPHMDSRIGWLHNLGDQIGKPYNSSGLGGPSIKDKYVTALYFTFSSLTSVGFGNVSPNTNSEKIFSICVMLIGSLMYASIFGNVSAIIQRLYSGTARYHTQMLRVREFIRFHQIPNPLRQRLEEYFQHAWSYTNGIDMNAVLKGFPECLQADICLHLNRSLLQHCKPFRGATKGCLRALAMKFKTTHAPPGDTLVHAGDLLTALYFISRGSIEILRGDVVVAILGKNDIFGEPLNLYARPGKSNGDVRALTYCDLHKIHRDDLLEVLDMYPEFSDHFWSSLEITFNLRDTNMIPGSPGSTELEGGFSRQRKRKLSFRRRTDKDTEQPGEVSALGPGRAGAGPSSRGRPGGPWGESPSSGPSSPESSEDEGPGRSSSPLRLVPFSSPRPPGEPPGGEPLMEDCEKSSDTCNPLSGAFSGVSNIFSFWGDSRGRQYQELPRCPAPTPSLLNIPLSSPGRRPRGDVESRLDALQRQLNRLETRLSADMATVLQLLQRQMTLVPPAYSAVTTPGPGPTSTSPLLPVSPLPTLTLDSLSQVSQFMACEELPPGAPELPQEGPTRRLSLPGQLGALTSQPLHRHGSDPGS

For the compound `OC(c1cc(F)c(F)c(-c2ncnc3cc(N4CCOCC4)ccc23)c1)c1nccs1` (stereo not drawn) [Example 178, [3,4-Difluoro-5-(7-morpholin-4-yl-quinazolin-4-yl)-phenyl)thiazol-2-yl-methanol], the Ki at Kv11.1 (hERG) (setting [2]) was over 25 µM. The IC50 was under 0.003 µM at DNA-PK (Table 5) and 0.5 to 5 µM in data set [1] (Table 5).
As for `OC(c1cc(F)c(F)c(-c2ncnc3cc(N4CCOCC4)ccc23)c1)c1nccs1` (stereo not drawn) [Example 179, [3,4-Difluoro-5-(7-morpholin-4-yl-quinazolin-4-yl)-phenyl]thiazol-2-yl-methanol], the Ki at Kv11.1 (hERG) (setting [2]) was under 10 µM. The IC50 on DNA-PK (Table 5) is 0.003 to 0.007 µM; in data set [1] (Table 5) it was 0.5 to 5 µM.
The like results for `OC(c1cnc(F)c(-c2ncnc3cc(N4CCOCC4)ccc23)c1)c1nccs1` (stereo not drawn) [Example 180, [6-Fluoro-5-(7-morpholin-4-yl-quinazolin-4-yl)-pyridin-3-yl]thiazol-2-ylmethanol] were, in that order, under 10 µM, under 0.003 µM and 5 to 10 µM.
On to `Cc1csc(C(O)c2cc(-c3ncnc4cc(N5CCOCC5)ccc34)c(F)cc2Cl)n1` (stereo not drawn) [Example 181, [2-Chloro-4-fluoro-5-(7-morpholin-4-yl-quinazolin-4-yl)-phenyl]-(4-methyl-thiazol-2-yl)-methanol], for which, on Kv11.1 (hERG) (setting [2]), the Ki is under 10 µM. Also, the IC50 against DNA-PK (Table 5) was under 0.003 µM; in data set [1] (Table 5), 0.5 to 5 µM.
The like results for `OCc1csc([C@@H](O)c2cc(-c3ncnc4cc(N5CCOCC5)ccc34)c(F)cc2Cl)n1` [Example 185, (S)-[2-Chloro-4-fluoro-5-(7-morpholin-4-yl-quinazolin-4-yl)-phenyl]-(4-hydroxymethyl-thiazol-2-yl)-methanol] were, in that order, over 25 µM, under 0.003 µM and 0.5 to 5 µM.
The like results for `OCc1csc([C@H](O)c2cc(-c3ncnc4cc(N5CCOCC5)ccc34)c(F)cc2Cl)n1` [Example 186, (R)-[2-Chloro-4-fluoro-5-(7-morpholin-4-yl-quinazolin-4-yl)-phenyl]-(4-hydroxymethyl-thiazol-2-yl)-methanol] were, in that order, under 10 µM, 0.007 to 0.03 µM and 5 to 10 µM.
The like results for `OC(c1cnc(F)c(-c2ncnc3cc(N4CCOCC4)ccc23)c1)c1nccs1` (stereo not drawn) [Example 188, [6-Fluoro-5-(7-morpholin-4-yl-quinazolin-4-yl)-pyridin-3-yl]thiazol-2-ylmethanol] were, in that order, over 25 µM, under 0.003 µM and 5 to 10 µM.
In the case of `OC(c1cnc(F)c(-c2ncnc3cc(N4CCOCC4)ccc23)c1)c1nccs1` (stereo not drawn) [Example 189, [6-Fluoro-5-(7-morpholin-4-yl-quinazolin-4-yl)-pyridin-3-yl]thiazol-2-ylmethanol], the Ki on Kv11.1 (hERG) (Ki [Kv1.11 hERG], Table 5) was in the range of 15 to 25 µM. Moreover, the IC50 on DNA-PK (Table 5) fell in the range of 0.003 to 0.007 µM; in data set [1] (Table 5) it was 0.5 to 5 µM.
As for `Cn1cc(C(O)c2ccc(F)c(-c3ncnc4cc(N5CCOCC5)ccc34)c2)cn1` (stereo not drawn) [Example 191, [4-Fluoro-3-(7-morpholin-4-yl-quinazolin-4-yl)-phenyl]-(1-methyl-1H-pyrazol-4-yl)-methanol], the Ki at Kv11.1 (hERG) (setting [2]) was over 25 µM. Moreover, the IC50 against DNA-PK (Table 5) was under 0.003 µM; in data set [1] (Table 5), 10 to 30 µM.
Take `Cc1nc(C(O)c2cnc(F)c(-c3ncnc4cc(N5CCOCC5)ncc34)c2)sc1C` (stereo not drawn) [Example 196, (4,5-Dimethyl-thiazol-2-yl)-[6-fluoro-5-(7-morpholin-4-yl-pyrido[4,3-d)-pyrimidin-4-yl)-pyridin-3-yl]-methanol]: the Ki at Kv11.1 (hERG) (setting [2]) was over 25 µM. Further, the IC50 is 0.007 to 0.03 µM against DNA-PK (Table 5) and 10 to 30 µM in data set [1] (Table 5).
The like results for `CC(C)n1cc(C(O)c2ccc(F)c(-c3ncnc4cc(N5CCOCC5)ccc34)c2)cn1` (stereo not drawn) [Example 197, [4-Fluoro-3-(7-morpholin-4-yl-quinazolin-4-yl)-phenyl]-(1-isopropyl-1H-pyrazol-4-yl)-methanol] were, in that order, under 10 µM, 0.003 to 0.007 µM and 5 to 10 µM.
The like results for `Fc1ccc(C(OC(F)F)c2nccs2)cc1-c1ncnc2cc(N3CCOCC3)ccc12` (stereo not drawn) [Example 199, 4-[5-(Difluoro-methoxy-thiazol-2-ylmethyl)-2-fluoro-phenyl]-7-morpholin-4-yl-quinazoline] were, in that order, under 10 µM, 0.003 to 0.007 µM and 10 to 30 µM.
As for `Cc1nc(C(O)c2ccc(F)c(-c3ncnc4cc(N5CCOCC5)ccc34)c2)sc1CO` (stereo not drawn) [Example 200, [4-Fluoro-3-(7-morpholin-4-yl-quinazolin-4-yl)-phenyl]-(5-hydroxy-methyl-4-methyl-thiazol-2-yl)-methanol], the Ki on Kv11.1 (hERG) (setting [2]) is over 25 µM. Moreover, the IC50 at DNA-PK (Table 5) was 0.003 to 0.007 µM; in data set [1] (Table 5) it was 5 to 10 µM.
Consider `CC(O)c1csc(C(O)c2cc(-c3ncnc4cc(N5CCOCC5)ccc34)c(F)cc2Cl)n1` (stereo not drawn) [Example 201, 1-(2-{[2-Chloro-4-fluoro-5-(7-morpholin-4-yl-quinazolin-4-yl)-phenyl]hydroxy-methyl}thiazol-4-yl)-ethanol], for which the Ki at Kv11.1 (hERG) (Ki [Kv1.11 hERG], Table 5) was in the range of 15 to 25 µM. In addition, the IC50 on DNA-PK (Table 5) is 0.003 to 0.007 µM; in data set [1] (Table 5), 0.5 to 5 µM.
The like results for `CCn1cc(C(O)c2cc(-c3ncnc4cc(N5CCOCC5)ccc34)c(F)cc2Cl)cn1` (stereo not drawn) [Example 202, [2-Chloro-4-fluoro-5-(7-morpholin-4-ylquinazolin-4-yl)-phenyl]-(1-ethyl-1H-pyrazol-4-yl)-methanol] were, in that order, 15 to 25 µM, 0.007 to 0.03 µM and 0.5 to 5 µM.
In the case of `Cc1nc(C(O)c2cnc(F)c(-c3ncnc4cc(N5CCOCC5)ncc34)c2)sc1C` (stereo not drawn) [Example 203, (4,5-Dimethyl-thiazol-2-yl)-[6-fluoro-5-(7-morpholin-4-yl-pyrido[4,3-d}-pyrimidin-4-yl)-pyridin-3-yl]-methanol], on Kv11.1 (hERG) (setting [2]), the Ki was over 25 µM. Further, the IC50 against DNA-PK (Table 5) is over 0.03 µM; in data set [1] (Table 5) it was 10 to 30 µM.
Regarding `Cc1nc([C@H](O)c2cnc(F)c(-c3ncnc4cc(N5CCOCC5)ncc34)c2)sc1C` [Example 204, (R)-(4,5-Dimethyl-thiazol-2-yl)-[6-fluoro-5-(7-morpholin-4-yl-pyrido[4,3-d}-pyrimidin-4-yl)-pyridin-3-yl]-methanol], the Ki at Kv11.1 (hERG) (Ki [Kv1.11 hERG], Table 5) fell in the range of 10 to 15 µM. Besides, the IC50 is over 0.03 µM at DNA-PK (Table 5) and 10 to 30 µM in data set [1] (Table 5).
The like results for `Cc1nc(C(O)c2cc(-c3ncnc4cc(N5CCOCC5)ccc34)cnc2F)sc1C` (stereo not drawn) [Example 205, (4,5-Dimethyl-thiazol-2-yl)-[2-fluoro-5-(7-morpholin-4-yl-quinazolin-4-yl)-pyridin-3-yl]-methanol] were, in that order, 10 to 15 µM, 0.007 to 0.03 µM and 10 to 30 µM.
`Cc1cc(F)c(-c2ncnc3cc(N4CCOCC4)ccc23)cc1C(O)c1nccs1` (stereo not drawn) [Example 207, [4-Fluoro-2-methyl-5-(7-morpholinylquinazolin-4-yl)phenyl]thiazol-2-ylmethanol] yielded a Ki at Kv11.1 (hERG) (Ki [Kv1.11 hERG], patch clamp, HEK293 transfected with hERG gene) of 15 to 25 µM. For the same compound, the IC50 against DNA-PK (enzymatic, 5 μM ATP) was under 0.003 µM; in data set [1] (setting [3]), 0.5 to 5 µM.
Regarding `C#Cc1nc(-c2cc(C(O)c3nccs3)ccc2F)c2ccc(N3CCOCC3)cc2n1` (stereo not drawn) [Example 208, [3-(2-Ethynyl-7-morpholinylquinazolin-4-yl)-4-fluorophenyl]thiazol-2-ylmethanol], the Ki on Kv11.1 (hERG) (read-out: Ki [Kv1.11 hERG], patch clamp, HEK293 transfected with hERG gene) is under 10 µM. Besides, the IC50 against DNA-PK (enzymatic, 5 μM ATP) lay within 0.003 to 0.007 µM; in data set [1] (setting [3]), 0.5 to 5 µM.

In general, Ki refers to the dissociation constant of the complex between target and ligand, obtained from inhibition or displacement. For orientation: IC50 means the point on the concentration scale where inhibition reaches its midpoint.
